Consider 31 compounds from patent US11464783B2, “Heterocyclic compounds” (Aligos Therapeutics, Inc., priority 2019, dated 2022).

The subject of the first assay is HBV. Kind of assay: HBV-DNA Antiviral Assay Using HepG2.2.15 Cells. Type of assay: cell-based. Particulars: extracellular HBV DNA by qPCR, day 7. Here is the method:
The following assay procedure describes the HBV antiviral assay. This assay uses HepG2.2.15 cells, which have been transfected with HBV genome, and extracellular HBV DNA quantification as endpoint. Cell viability is assessed in parallel by measuring the intracellular ATP content using the CellTiter-Glo® reagent from Promega.
On day 0, HepG2.2.15 cells were seeded in 96-well plates at a density of 6.0×10^4 cells/well (0.1 mL/well). The cells were incubated at 37° C. and 5% CO2.
On day 1, the test articles were diluted and added to cell culture wells (8 concentrations, 4-fold dilution, in duplicate). GLS4, Tenofovir and Sorafenib were used as reference compounds. 100 μL of culture medium containing the compounds was added to the plate, and the final total volume per well was 200 μL. The final concentration of DMSO in the culture medium was 0.5%. The plate map of compound treatment is shown below. The cells were cultured at 37° C. and 5% CO2 for 3 days.
On day 4, the plates were refreshed with culture media with compounds.
On day 7, cell viability was assessed using the CellTiter-Glo®, and the cell culture supernatants were collected for determination of HBV DNA by qPCR.
Extracellular DNA was isolated with QIAamp 96 DNA Blood Kit per the manufacturer's manual. HBV DNA was then quantified by qPCR with HBV specific primers and probes as specified in Table 1 using the FastStart Universal MasterMix from Roche on an ABI-7900HT. The PCR cycle program consisted of 95° C. for 10 min, followed by 40 cycles at 95° C. for 15 sec and 60° C. for 1 min.
A DNA standard was prepared by dilution of the pAAV2 HBV1.3 plasmid with concentrations ranging from 10 to 1×10^7 copies/uL and used to generate a standard curve by plotting Ct value vs. the concentration of the HBV plasmid DNA standard. The quantity of HBV DNA in each sample was determined by interpolating from the standard curve.
Cell viability was calculated as follows: % Cell viability=(luminescence value of test sample−average luminescence value of blank)/(average luminescence value of 0.5% DMSO control−average luminescence of blank)×100%. HBV DNA inhibition was calculated as follows: 100-(HBV DNA copy number of test sample−HBV DNA copy number of ETV)/HBV DNA copy number of 0.5% DMSO control−HBV DNA copy number of ETV)×100%. The CC50, EC50 and EC90 values were determined by dose-response curves fitted by GraphPad Prism using “log (agonist) vs. response-Variable slope”.
(In general: In qPCR the cycle at which signal appears reflects the starting amount.)
One may read the EC50 as the concentration needed to bring the measured effect to its halfway point. Read a high EC50 as a need for much substance. Compound `O=C(c1ccc(Cl)c(Cl)c1)N1CCS(=O)(=O)C(c2cccs2)C1` (single isomer, unassigned) [Compound 8a, (3,4-dichlorophenyl)-[1,1-dioxo-2-(2-thienyl)-1,4-thiazinan-4-yl]methanone] had an EC50 of 500 to 5000 nM. `O=C(c1ccc(Cl)c(Cl)c1)N1CCS(=O)(=O)C(c2cccs2)C1` (single isomer, unassigned) [Compound 8b, (3,4-dichlorophenyl)-[1,1-dioxo-2-(2-thienyl)-1,4-thiazinan-4-yl]methanone] yielded an EC50 of 100 to 500 nM. As for `Cc1cc(C(=O)N2CCS(=O)(=O)C(c3cccs3)C2)ccc1Cl` (single isomer, unassigned) [Compound 9a, (4-chloro-3-methyl-phenyl)-[1,1-dioxo-2-(2-thienyl)-1,4-thiazinan-4-yl]methanone], the EC50 was 500 to 5000 nM. Turning to `Cc1cc(C(=O)N2CCS(=O)(=O)C(c3cccs3)C2)ccc1Cl` (single isomer, unassigned) [Compound 9b, (4-chloro-3-methyl-phenyl)-[1,1-dioxo-2-(2-thienyl)-1,4-thiazinan-4-yl]methanone], the EC50 lay within 100 to 500 nM. Same read-out and setting: for `Cn1cnc(-c2ccc(C3CN(C(=O)c4ccc(Br)c(Cl)c4)CCS3(=O)=O)s2)c1` (single isomer, unassigned) [Compound 16a, (4-bromo-3-chloro-phenyl)-[2-[5-(1-methylimidazol-4-yl)-2-thienyl]-1,1-dioxo-1,4-thiazinan-4-yl]methanone] the value was 100 to 500 nM.

For another assay, the system named is HBV. The assay can be described thus: HBV-DNA Antiviral Assay Using HepG2.117 Cells. The conditions noted are these: Hepatitis B virus, HepG2.117, 96 h, intracellular HBV DNA by qPCR, day 4. The assay is classed as cell-based. As for the experimental part:
The following assay procedure describes the HBV antiviral assay, using HepG2.117 cells, which carry a stably integrated genotype D HBV genome under the control of a Tet-off promoter, and intracellular HBV DNA quantification as endpoint. Cell viability is assessed in parallel by measuring the intracellular ATP content using ATPlite (Perkin Elmer).
On day 0, HepG2.117 cells (which are maintained in routine cell culture with doxycycline present in the medium at a final concentration of 1 μg/mL) were seeded in 96-well plates (white with clear bottom) at a density of 2.0×10^4 cells/well (0.1 mL/well) in medium without doxycycline to induce pgRNA transcription and subsequent formation of HBV particles. The cells were incubated at 37° C. and 5% CO2.
On day 1, medium was removed from each well, the test articles were diluted in culture medium without doxcycyline and 100 μL was added to cell culture wells (9 concentrations, 4-fold dilution). For each plate, 6 untreated (merely DMSO) wells were included. The final concentration of DMSO in the culture medium was 2%. Each plate was prepared in duplicate (one for HBV DNA extraction, one for ATPlite measurement). The cells were incubated at 37° C. and 5% CO2 for 3 days.
On day 4, cell viability was assessed using ATPlite and cell lysates were prepared for HBV DNA extraction and subsequent quantification by qPCR.
Medium was removed from each well and 100 μL of 0.33% NP-40 in H2O was added to each well. Plates were sealed, incubated at 4° C. for 5 mins, vortexed extensively and centrifuged briefly. Next, 35 μL of lysate was added to 65 μL QuickExtract DNA Extraction Solution (Epicentre) in a PCR plate for each well. PCR plate was incubated at 65° C. for 6 mins, 98° C. for 2 mins and finally cooled to 4° C. HBV DNA was then quantified by qPCR with HBV-specific primers and probes as specified in Table 2 using the Bio-Rad SSOAdvanced Universal Probes Supermix on a CFX96 machine (Bio-Rad). The PCR cycle program consisted of 95° C. for 3 mins, followed by 40 cycles at 95° C. for 10 sec and 60° C. for 30 sec.
A DNA standard was prepared by dilution of an IDT gBlock corresponding to the amplicon with concentrations ranging from 10^2 to 10^8 copies/input (i.e. per 4 μL) and used to generate a standard curve by plotting Cq values vs. HBV DNA standard concentration. The quantity of HBV DNA in each sample was determined by interpolating from the standard curve.
Cell viability was calculated as follows: % Cell viability=(luminescence value of test sample)/(average luminescence value of 2% DMSO control)×100%. HBV DNA inhibition was calculated as follows: 100−(HBV DNA copy number of test sample)/(average HBV DNA copy number of 2% DMSO control)×100%. No normalization to entecavir was required due to the excellent dynamic window of this assay. The CC50, EC so and EC90 values were determined by dose-response curves fitted by GraphPad Prism using “log (agonist) vs. response—Variable slope”.
In the case of `O=C(c1ccc(Br)c(Cl)c1)N1CCS(=O)(=O)C(c2nc(Cc3ccccc3)cs2)C1` (stereo not shown) [Compound 31, (2-(4-benzylthiazol-2-yl)-1,1-dioxidothiomorpholino)(4-bromo-3-chlorophenyl)methanone], the EC50 lay within 100 to 500 nM.

Compound `O=C(c1ccc(Cl)c(Cl)c1)N1CCS(=O)(=O)C(c2nccs2)C1` (stereo not shown) [Compound 32] gave an EC50 of 500 to 5000 nM. The same measure, in the same setting: for `C[C@@]1(C(=O)NCc2ccccc2)CN(C(=O)c2ccc(Br)c(Cl)c2)CCS1(=O)=O` [Compound 33a] the value was 100 to 500 nM; for `C[C@]1(C(=O)NCc2ccccc2)CN(C(=O)c2ccc(Br)c(Cl)c2)CCS1(=O)=O` [Compound 33b], 500 to 5000 nM.

`CC1(c2nccs2)CN(C(=O)c2ccc(Br)c(Cl)c2)CCS1(=O)=O` (stereo not shown) [Compound 34] came in with an EC50 of 500 to 5000 nM.

`O=C(c1ccc(Br)c(Cl)c1)N1CCS(=O)(=O)[C@](F)(C(=O)NCc2ccccc2)C1` [Compound 35a]: the EC50 was not above 100 nM. Same read-out and setting: the figure for `O=C(c1ccc(Br)c(Cl)c1)N1CCS(=O)(=O)[C@@](F)(C(=O)NCc2ccccc2)C1` [Compound 35b] is 500 to 5000 nM; for `O=C(c1ccc(Br)c(Cl)c1)N1CCS(=O)(=O)[C@](F)(c2ncc(Cc3ccccc3)s2)C1` [Compound 37a, (4-bromo-3-chloro-phenyl)-[(2S)-2-(5-benzylthiazol-2-yl)-2-fluoro-1,1-dioxo-1,4-thiazinan-4-yl]methanone] it is not above 100 nM; for `O=C(c1ccc(Br)c(Cl)c1)N1CCS(=O)(=O)[C@@](F)(c2ncc(Cc3ccccc3)s2)C1` [Compound 37b, (4-bromo-3-chloro-phenyl)-[(2R)-2-(5-benzylthiazol-2-yl)-2-fluoro-1,1-dioxo-1,4-thiazinan-4-yl]methanone] it is 500 to 5000 nM. As for `O=C(c1ccc(Br)c(Cl)c1)N1CCS(=O)(=O)[C@](F)(C(=O)NCCc2ccccc2)C1` [Compound 38a], the EC50 was more than 5000 nM. `O=C(c1ccc(Br)c(Cl)c1)N1CCS(=O)(=O)[C@@](F)(C(=O)NCCc2ccccc2)C1` [Compound 38b]: the 50% effective concentration (EC50) lay within 500 to 5000 nM. Compound `O=C(c1ccc(Br)c(Cl)c1)N1CCS(=O)(=O)[C@@](F)(c2ncc(-c3ccccc3)s2)C1` [Compound 39] registered an EC50 of 500 to 5000 nM. In turn, `N#Cc1cc(C(=O)N2CCS(=O)(=O)[C@](F)(c3ncc(Cc4ccccc4)s3)C2)ccc1Br` [Compound 40a] returned an EC50 of 500 to 5000 nM.

Take `N#Cc1cc(C(=O)N2CCS(=O)(=O)[C@@](F)(c3ncc(Cc4ccccc4)s3)C2)ccc1Br` [Compound 40b]: the EC50 is not above 100 nM. The compound `C[C@H](c1ccccc1)c1cnc([C@@]2(F)CN(C(=O)c3ccc(Br)c(Cl)c3)CCS2(=O)=O)s1` [Compound 41a] registered a 50% effective concentration (EC50) not above 100 nM. Regarding `C[C@@H](c1ccccc1)c1cnc([C@@]2(F)CN(C(=O)c3ccc(Br)c(Cl)c3)CCS2(=O)=O)s1` [Compound 41b], the EC50 was not above 100 nM. On to `C[C@H](c1ccccc1)c1cnc([C@]2(F)CN(C(=O)c3ccc(Br)c(Cl)c3)CCS2(=O)=O)s1` [Compound 41c], for which the EC50 lay within 500 to 5000 nM. As to `C[C@@H](c1ccccc1)c1cnc([C@]2(F)CN(C(=O)c3ccc(Br)c(Cl)c3)CCS2(=O)=O)s1` [Compound 41d], the EC50 lay within 500 to 5000 nM. In the case of `C[C@@H](c1cnc([C@@]2(F)CN(C(=O)c3ccc(Br)c(C#N)c3)CCS2(=O)=O)s1)c1ccccc1F` [Compound 43a], the half-maximal effective concentration (EC50) is not above 100 nM. As to `C[C@H](c1cnc([C@@]2(F)CN(C(=O)c3ccc(Br)c(C#N)c3)CCS2(=O)=O)s1)c1ccccc1F` [Compound 43b], the EC50 was not above 100 nM. Turning to `C[C@@H](c1cnc([C@]2(F)CN(C(=O)c3ccc(Br)c(C#N)c3)CCS2(=O)=O)s1)c1ccccc1F` [Compound 43c], the EC50 lay in the range of 500 to 5000 nM. With `C[C@H](c1cnc([C@]2(F)CN(C(=O)c3ccc(Br)c(C#N)c3)CCS2(=O)=O)s1)c1ccccc1F` [Compound 43d], the EC50 was in the range of 500 to 5000 nM.

As for `N#Cc1cc(C(=O)N2CCS(=O)(=O)[C@@](F)(c3ncc(Cc4ccccc4-c4ncccn4)s3)C2)ccc1Br` [Compound 45a], the EC50 is not above 100 nM. Same read-out and setting: for `N#Cc1cc(C(=O)N2CCS(=O)(=O)[C@](F)(c3ncc(Cc4ccccc4-c4ncccn4)s3)C2)ccc1Br` [Compound 45b] the value was 500 to 5000 nM; for `O=C(c1ccc(Br)c(Cl)c1)N1CCS(=O)(=O)[C@@](F)(c2ncc(Cc3ccccc3)o2)C1` [Compound 46a, (R)-(2-(5-benzyloxazol-2-yl)-2-fluoro-1,1-dioxidothiomorpholino)(4-bromo-3-chlorophenyl)methanone], not above 100 nM; for `COc1ccc(Cc2cnc([C@]3(F)CN(C(=O)c4ccc(Br)c(Cl)c4)CCS3(=O)=O)s2)c(OC)c1` [Compound 49a], 500 to 5000 nM.
